Test: saturated solubility of RebA and RebD in ethanol solvent (excess loading, 24 h stirring, filtrate measured with LCMS)
Assay type: physicochemical
Conditions: for saturated solubility: 90% by mass of EtOH, 10° C., values used in calculation of the degree of supersaturation; for saturated dissolution concentration: 90% ethanol solvent at 10° C., according to FIG. 1
Description: The saturated solubility is herein measured according to the following method. That is, 100 ml of a solvent having a predetermined methanol or ethanol concentration (w/w) is placed in a container (having a volume of 100 ml or 200 ml, suitably 200 ml), the liquid temperature is set to 10° C. by a water bath in advance, and then the solvent is stirred at 200 rpm, and a target substance is loaded in an excessive amount (amount until suspension is made). After 24 hours, a filtrate is obtained by a 0.45-um membrane filter, and the amount of the target substance (RebA or RebD) included in the filtrate is measured with LCMS. LCMS here used is suitably LCMS 8050 manufactured by Shimadzu Corporation.
Specifically, 100 ml of a solvent having a predetermined ethanol concentration (w/w) was placed in a […] glass container (separable round-bottomed flask, Tokyo Rikakikai Co., Ltd.), set to a predetermined temperature by a water bath (PCC-7000, Tokyo Rikakikai Co., Ltd.) in advance, and then stirred (SPZ-100, Tokyo Rikakikai Co., Ltd.) at 200 rpm, and RebA (J-100, Morita Kagaku Kogyo Co., Ltd.) or RebD (Jining Renewal & Joint International, China) was loaded in an excessive amount (amount until suspension was achieved). After 24 hours, a filtrate was obtained by a 0.45-um membrane filter, the amount of RebA or RebD included in the filtrate was measured with LCMS (LCMS 8050 manufactured by Shimadzu Corporation), and the solubility curve was created. The results are illustrated in FIG. 1.

saturated solubility [ppm]	saturated dissolution concentration	Compound
8270.5	8,250 ppm	C=C1C[C@@]23CC[C@H]4[C@@](C)(CCC[C@@]4(C)C(=O)O[C@@H]4O[C@H](CO)[C@@H](O)[C@H](O)[C@H]4O)[C@@H]2CC[C@]1(O[C@@H]1O[C@H](CO)[C@@H](O)[C@H](O[C@@H]2O[C@H](CO)[C@@H](O)[C@H](O)[C@H]2O)[C@H]1O[C@@H]1O[C@H](CO)[C@@H](O)[C@H](O)[C@H]1O)C3 [RebA, rebaudioside A]
99.33	99.3 ppm	C=C1C[C@@]23CC[C@H]4[C@@](C)(CCC[C@@]4(C)C(=O)O[C@@H]4O[C@H](CO)[C@@H](O)[C@H](O)[C@H]4O[C@@H]4O[C@H](CO)[C@@H](O)[C@H](O)[C@H]4O)[C@@H]2CC[C@]1(O[C@@H]1O[C@H](CO)[C@@H](O)[C@H](O[C@@H]2O[C@H](CO)[C@@H](O)[C@H](O)[C@H]2O)[C@H]1O[C@@H]1O[C@H](CO)[C@@H](O)[C@H](O)[C@H]1O)C3 [RebD, rebaudioside D]

From patent US20230027601A1, “METHOD FOR MANUFACTURING REVAUDIOSIDE-D-CONTAINING CRYSTALLIZED PRODUCT, AND REVAUDIOSIDE-D-CONTAINING CRYSTALLIZED PRODUCT” (SUNTORY HOLDINGS LIMITED, priority 2019, published 2023)
